Experimental data taken from patent US20140272947A1, “METHODS AND COMPOSITIONS FOR SCREENING MODULATORS OF ONCOGENE-INDUCED SENESCENCE” (Fox Chase Cancer Center, priority 2013, published 2014).

Columns and labels:
[1] = system: primary fibroblasts (IMR90) transduced with H-RasG12V; test: Validation: manual quantification of SA-β-gal positive cells; format: cell-based, human; details: for % SA-β-Gal + Cells Avg: 250 nM inhibitor, +H-RasG12V IMR90, 7 additional days, >300 cells counted, triplicate
Description: Senescence-associated β-galactosidase (SA-β-Gal) assay has previously been described^9. Briefly, cells were fixed in 2% formaldehyde and 0.2% glutaraldehyde and washed with phosphate-buffered saline. Staining solution [40 mM Na2HPO4, 150 mM NaCl, 2 mM MgCl2, 5 mM K3Fe(CN)6, 5 mM K4Fe(CN)6, 1 mg/mL X-gal] was added with a multichannel pipette, and cells were incubated for 24 hrs. Cells were stained with DAPI (0.15 μg/mL) to visualize nuclei.
(§1) Cells with β-galactosidase (blue) positivity within the cytosol were considered positive. Cells were stained with DAPI to visualize nuclei and SAHF. Cells with punctate spots within the nuclear compartment were considered SAHF positive. Cells were imaged using a Nikon Eclipse Ni fluorescence microscope as previously described^15. Three different fields of cells were counted (total cells counted >300). These experiments were performed in triplicate. Data from validation experiments is shown as a percentage of SA-β-gal or SAHF positive cells.
These cells were then utilized in the SA-β-gal assay to examine changes in expression of SA-β-gal activity.
(§2) Other than the control, all of the tested compounds are +H-Ras^G12V. Percentage of SA-β-gal and SAHF positive cells is shown with indicated standard deviation (SD). Total cells with SA-β-gal positive cells or SAHF positive cells were counted in three separate fields (totals cells counted >300). Experiments were performed in triplicate. p-value determined by t-test.

[2] = system: primary fibroblasts (IMR90) transduced with H-RasG12V; test: Validation: senescence-associated heterochromatin foci (SAHF) positive cells by DAPI staining; format: cell-based, human; details: for % SAHF + Cells Avg: 250 nM inhibitor, +H-RasG12V IMR90, 9 days of culture, >300 cells counted, triplicate
Description: as §1
After 9 days of culture, we stained the cells with DAPI to visualize the formation of SAHF.
as §2

[3] = system: primary human fibroblasts (IMR90) transduced with H-RasG12V; test: High-throughput senescence screen (SA-β-gal area and nuclei number, high-content imaging); format: cell-based; details: 250 nM, 96-well, normalized to DMSO control, hit = beyond one standard deviation
Description: We use a model system for DIS that involves overexpressing an activated Ras in normal human fibroblast (IMR90). Upon expression of Ras, these cells undergo senescence as measured by increased β-galactosidase activity. IMR90 cells are infected with retrovirus control (496) or Ras (493). IMR90 cells were transduced over two days (Day −1 and 0) with pBABE-HRasG12V. Cells were then plated into a 96-well plate at a predetermined density (1,000 cells/well) and selected with puromycin (1 ug/mL) for two days (Day 1 and 2). The initial number of cells per well (1,000) was optimized to avoid confluence-induced growth inhibition. […] Allowing the cells to undergo senescence ([…] after puromycin selection), on day 9, cells were subjected to a quantitative SA-β-gal assay (described below) and stained with DAPI to visualize nuclei, which allowed for quantification of cell number. […]
For the screen, four fluorescence and four phase contrast images were acquired from each well of the 96-well plates with an ImageXpress Micro high-content imaging system (Molecular Devices, Sunnyvale Calif.) using the 10× objective. […] Fluorescence images were used to record DAPI staining of cell nuclei. Images were analyzed utilizing the MultiWavelength Scoring module in METAXPRESS image analysis software (Molecular Devices). […]

[4] = system: senescence; details: literature report; cited from earlier work
[5] = 250 nM, RAS-expressing cells, significance p<0.05 vs DMSO

SMILES | % SA-β-Gal + Cells Avg [1] [%] | % SAHF + Cells Avg [2] [%] | Effect on SA-β-gal area and cell number (nuclei) in initial screen [3] | Prevention of senescence (reported) [4] | Inhibition of oncogenic RAS-induced SAHF formation (validation, in words) [2, 5] | Reduction of expression of SA-β-gal activity (validation, in words) [1, 5]
Cc1[nH]c(/C=C2\C(=O)Nc3ccc(S(=O)(=O)N(C)c4cccc(Cl)c4)cc32)c(C)c1C(=O)N1CCN(C)CC1 [658084-23-2, Met Kinase inhibitor] | 5.0 | 14.7 | – | – | – | –
CCc1[nH]c(-c2ccc(OC)cc2)nc1-c1ccncc1 [172747-50-1, SB 202474] | 6.7 | 10.4 | – | – | – | –
COc1ccc(S(=O)(=O)N(CCO)c2ccccc2CN(C)CC=Cc2ccc(Cl)cc2)cc1 [139298-40-1, KN-93] | 8.1 | 12.3 | – | – | – | –
O=C1NC(=O)C(c2cn(CCCn3ccnc3)c3ccccc23)=C1Nc1ccccc1 [257879-35-9, PKC β Inhibitor] | 5.5 | 8.3 | – | – | – | –
COc1cc2nccc(Oc3ccc(NC(=S)NC(=O)c4ccccc4C)cc3)c2cc1OC [347155-76-4, PDGFR Tyrosine Kinase Inhibitor V] | 6.7 | 16.3 | – | – | – | –
O=c1c(-c2ccc(F)cc2)c(-c2ccncc2)[nH]n1-c1ccc(Cl)cc1 [219138-24-6, P38 MAPK Inhibitor] | 5.8 | 16.3 | – | – | – | –
COc1cc2ncnc(Nc3cccc(Cl)c3)c2cc1OC [175178-82-2, AG 1478] | 3.8 | 11.5 | – | – | – | –
O=C1NC(=O)/C(=C/c2ccc3c(c2)OC(F)(F)O3)S1 [648449-76-7] | 20.7 | 26.9 | no effect on SA-β-gal area or cell number | – | – | –
Cc1nc2cc3nc(-c4cccs4)cnc3cc2n1C [22617-28-8, AGL2043] | 10.9 | 10.2 | – | – | – | –
Cn1sc(=O)n(Cc2ccccc2)c1=O [327036-89-5, GSK3β Inhibitor I] | 6.5 | 7.8 | – | – | – | –
O=C(Nc1ccc(Cl)cc1)c1ccccc1NCc1ccncc1 [269390-69-4, VEGFR Tyrosine Kinase Inhibitor II] | 4.1 | 13.0 | – | – | – | –
c1cc(-c2cnn3cc(-c4ccc(OCCN5CCCCC5)cc4)cnc23)ccn1 [866405-64-3, AMPK Compound C] | 4.4 | 15.9 | – | reported to prevent senescence | – | –
Oc1cccc(-c2nc(N3CCOCC3)c3oc4ncccc4c3n2)c1 [371935-74-9, PI-103] | 4.7 | 43.0 | – | – | failed to prevent SAHF formation | –
Cc1cc(Nc2nc(-c3ccccc3)nc3ccccc23)n[nH]1 [404828-08-6, GSK-3 Inhibitor XIII] | 8.2 | 7.0 | – | – | – | –
NC(=O)c1ccc2nc(-c3ccc(Oc4ccc(Cl)cc4)cc3)[nH]c2c1 [516480-79-8, Chk2 Inhibitor II] | 7.4 | 13.2 | – | – | – | –
O=c1c2ccccc2[nH]c(=S)n1CCN1CCC(=C(c2ccc(F)cc2)c2ccc(F)cc2)CC1 [120166-69-0, Diacylglycerol Kinase Inhibitor II] | 5.2 | 10.4 | – | – | – | –
O=C(Nc1cccc(Nc2nccc(Nc3cccc(C(F)(F)F)c3)n2)c1)C1CC1 [879127-16-9, Aurora Kinase Inhibitor III] | 5.7 | 15.8 | – | – | – | –
O=c1[nH]c2ccccc2n1C1CCN(Cc2ccc(-c3nc4cc5[nH]cnc5cc4nc3-c3ccccc3)cc2)CC1 [612847-09-3, Akt Inhibitor VIII] | 21.3 | 11.3 | – | – | – | failed to reduce SA-β-gal activity
